ChEMBL document CHEMBL1909046, “DrugMatrix in vitro pharmacology data”

Columns and labels:
[1] = biological target: Prostaglandin G/H synthase 1 (Homo sapiens, UniProt P23219); assay: biochemical; assay type: tissue-based, Platelet; settings: platelet;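 further: inhibition of COX-1 enzyme activity, with arachidonic acid supplied as substrate; in other assays of this panel Not Active means under 50% inhibition at 10 µM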
[2] = biological target: T1, Cysteinyl leukotriene receptor 1 (Homo sapiens, UniProt Q9Y271); assay type: cell membranes, CHO-K1, Membrane; settings: cho-k1; further: in other assays of this panel Not Active means under 50% inhibition at 10 µM
T1 sequence (Q9Y271 whole entry): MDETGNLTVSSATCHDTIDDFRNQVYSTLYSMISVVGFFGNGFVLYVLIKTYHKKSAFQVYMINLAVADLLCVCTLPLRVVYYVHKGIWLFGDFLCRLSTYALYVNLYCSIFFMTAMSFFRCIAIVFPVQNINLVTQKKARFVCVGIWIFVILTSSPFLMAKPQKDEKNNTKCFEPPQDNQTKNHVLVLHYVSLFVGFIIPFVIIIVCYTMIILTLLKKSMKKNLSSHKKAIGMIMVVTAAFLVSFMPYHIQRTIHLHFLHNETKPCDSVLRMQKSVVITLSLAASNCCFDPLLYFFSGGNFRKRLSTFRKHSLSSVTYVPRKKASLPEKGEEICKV

[3] = biological target: T2, Thromboxane-A synthase (Homo sapiens, UniProt P24557); assay: biochemical; assay type: tissue-based, Platelet; settings: platelet;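 further: enzyme inhibition assay with PGH2 supplied as substrate; in other assays of this panel Not Active means under 50% inhibition at 10 µM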
T2 sequence (P24557 whole entry): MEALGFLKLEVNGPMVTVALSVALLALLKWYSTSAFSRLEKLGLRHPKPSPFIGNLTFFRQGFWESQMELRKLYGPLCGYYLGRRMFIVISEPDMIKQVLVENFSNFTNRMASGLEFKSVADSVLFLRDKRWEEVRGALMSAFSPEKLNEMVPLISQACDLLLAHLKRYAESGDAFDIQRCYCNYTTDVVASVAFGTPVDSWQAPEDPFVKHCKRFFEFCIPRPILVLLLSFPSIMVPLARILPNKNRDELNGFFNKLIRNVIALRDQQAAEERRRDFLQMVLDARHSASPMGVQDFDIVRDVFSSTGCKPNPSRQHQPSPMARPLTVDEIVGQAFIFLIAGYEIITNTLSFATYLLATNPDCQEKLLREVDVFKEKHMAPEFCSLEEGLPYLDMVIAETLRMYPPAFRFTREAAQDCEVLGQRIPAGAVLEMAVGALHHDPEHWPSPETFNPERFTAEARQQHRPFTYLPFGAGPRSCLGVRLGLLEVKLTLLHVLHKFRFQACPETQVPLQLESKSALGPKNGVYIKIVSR

[4] = biological target: T3, Adenosine receptor A3 (Homo sapiens, UniProt P0DMS8); assay type: cell membranes, CHO-K1, Membrane; settings: for Ki: read-out: Ki;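 on all read-outs here: radioligand binding assay with AB-MECA serving as the labeled ligand; in other assays of this panel Not Active means under 50% inhibition at 10 µM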
T3 sequence (P0DMS8 whole entry): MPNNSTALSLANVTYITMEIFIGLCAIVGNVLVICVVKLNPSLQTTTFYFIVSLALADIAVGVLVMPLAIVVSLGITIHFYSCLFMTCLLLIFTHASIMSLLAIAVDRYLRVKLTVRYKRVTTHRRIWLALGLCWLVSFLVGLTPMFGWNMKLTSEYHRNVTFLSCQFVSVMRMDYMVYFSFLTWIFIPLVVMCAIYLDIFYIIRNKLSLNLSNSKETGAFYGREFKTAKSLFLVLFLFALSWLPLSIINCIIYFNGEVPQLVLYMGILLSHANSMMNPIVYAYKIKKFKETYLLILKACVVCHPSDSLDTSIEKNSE

[5] = biological target: T4, Interstitial collagenase (Homo sapiens, UniProt P03956); assay: biochemical; assay type: tissue-based, Rheumatoid synovial fibroblasts
T4 sequence (P03956 whole entry): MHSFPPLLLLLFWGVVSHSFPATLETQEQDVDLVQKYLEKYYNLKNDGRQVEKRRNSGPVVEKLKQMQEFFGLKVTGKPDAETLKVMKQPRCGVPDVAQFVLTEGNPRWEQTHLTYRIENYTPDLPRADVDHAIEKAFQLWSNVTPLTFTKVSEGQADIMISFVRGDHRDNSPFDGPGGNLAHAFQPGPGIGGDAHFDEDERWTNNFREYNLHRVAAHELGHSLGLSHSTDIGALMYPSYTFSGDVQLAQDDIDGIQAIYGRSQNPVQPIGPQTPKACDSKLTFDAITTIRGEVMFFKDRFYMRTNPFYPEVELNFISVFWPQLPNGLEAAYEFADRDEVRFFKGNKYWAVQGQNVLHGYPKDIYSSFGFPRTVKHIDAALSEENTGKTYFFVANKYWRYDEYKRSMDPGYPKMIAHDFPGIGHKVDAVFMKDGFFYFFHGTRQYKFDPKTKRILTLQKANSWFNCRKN

[6] = DRUGMATRIX: Nicotinic Acetylcholine radioligand binding (ligand: [125I] Epibatidine); assay type: cell membranes, Membrane; settings: imr-32; Not Active = under 50% inhibition at 10 µM

Chain of Prostaglandin G/H synthase 1 (P23219 whole entry): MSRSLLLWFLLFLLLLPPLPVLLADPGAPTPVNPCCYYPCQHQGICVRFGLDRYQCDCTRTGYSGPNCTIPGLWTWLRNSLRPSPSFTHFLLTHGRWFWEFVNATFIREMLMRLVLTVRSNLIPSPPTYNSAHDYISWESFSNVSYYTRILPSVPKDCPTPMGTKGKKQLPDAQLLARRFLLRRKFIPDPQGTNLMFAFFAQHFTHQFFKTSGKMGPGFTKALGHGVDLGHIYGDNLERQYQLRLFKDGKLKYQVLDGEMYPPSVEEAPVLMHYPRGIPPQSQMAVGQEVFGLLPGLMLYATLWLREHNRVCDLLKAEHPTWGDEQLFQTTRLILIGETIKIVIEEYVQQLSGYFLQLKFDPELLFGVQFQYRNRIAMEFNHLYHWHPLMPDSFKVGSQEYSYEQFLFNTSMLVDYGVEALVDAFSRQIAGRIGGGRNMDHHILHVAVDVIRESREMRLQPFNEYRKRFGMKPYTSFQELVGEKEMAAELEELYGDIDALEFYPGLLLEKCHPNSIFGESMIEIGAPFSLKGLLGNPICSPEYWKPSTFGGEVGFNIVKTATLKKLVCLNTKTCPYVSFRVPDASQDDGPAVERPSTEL

Structure (SMILES)	IC50 [1]	IC50 [2]	IC50 [3]	IC50 ([4]; cho-k1)	IC50 [5]	IC50 [6]	Ki [6]	IC50 ([4]; read-out: IC50) [nM]	Ki [4] [nM]
Oc1ccccc1 [PHENOL]	Not Active	Not Active	Not Active	Not Active	Not Active	Not Active	Not Active		
Oc1ncnc2[nH]ncc12 [ALLOPURINOL]	Not Active	Not Active	Not Active	Not Active	Not Active	Not Active	Not Active		
COC(=O)Nc1nc2ccc(Sc3ccccc3)cc2[nH]1 [FENBENDAZOLE]	Not Active	Not Active	Not Active	Not Active	Not Active	Not Active	Not Active		
C[C@@H]1[C@H](O)[C@@H](C)/C=C/C=C/C=C/C=C/C=C/C=C/C=C/[C@H](O[C@@H]2O[C@H](C)[C@@H](O)[C@H](N)[C@@H]2O)C[C@@H]2O[C@](O)(C[C@@H](O)C[C@@H](O)[C@H](O)CC[C@@H](O)C[C@@H](O)CC(=O)O[C@H]1C)C[C@H](O)[C@H]2C(=O)O [AMPHOTERICIN B]	Not Active	Not Active	Not Active	Not Active	Not Active	Not Active	Not Active		
CCO [ALCOHOL]	Not Active	Not Active	Not Active	Not Active	Not Active	Not Active	Not Active		
COc1cc(/C=C/C(=O)O)ccc1O [FERULATE]	Not Active	Not Active	Not Active	Not Active	Not Active	Not Active	Not Active		
CNC[C@H](O)c1ccc(O)c(O)c1 [EPINEPHRINE]	Not Active	Not Active	Not Active	Not Active	Not Active	Not Active	Not Active		
CC1(COc2ccc(CC3SC(=O)NC3=O)cc2)CCCCC1 (configuration not stated) [CIGLITAZONE]	Not Active	Not Active	Not Active		Not Active	Not Active	Not Active	3050	1720
NC(N)=Nc1nc(CSCCC(N)=NS(N)(=O)=O)cs1 [FAMOTIDINE]	Not Active	Not Active	Not Active	Not Active	Not Active	Not Active	Not Active		
Nc1nc(F)nc2c1ncn2[C@@H]1O[C@H](CO)[C@@H](O)[C@@H]1O [FLUDARABINE]	Not Active	Not Active	Not Active	Not Active	Not Active	Not Active	Not Active		
NC(=O)NC(=O)Cc1ccccc1 [PHENACEMIDE]	Not Active	Not Active	Not Active	Not Active	Not Active	Not Active	Not Active		
Nc1ccc(C(=O)O)c(O)c1 [AMINOSALICYLIC ACID]	Not Active	Not Active	Not Active	Not Active	Not Active	Not Active	Not Active		
O=c1[nH]cnc2c1ncn2[C@H]1CC[C@@H](CO)O1 [DIDANOSINE]	Not Active	Not Active	Not Active	Not Active	Not Active	Not Active	Not Active		
NC(=O)CN1CCCC1=O	Not Active	Not Active	Not Active	Not Active	Not Active	Not Active	Not Active		
Clc1cc(Cl)c(OCC#CI)cc1Cl [HALOPROGIN]	Not Active	Not Active	Not Active		Not Active	Not Active	Not Active	223	126
O=C(NCCN1CCOCC1)c1ccc(Cl)cc1 [MOCLOBEMIDE]	Not Active	Not Active	Not Active	Not Active	Not Active	Not Active	Not Active		
Cc1c(N)nc([C@H](CC(N)=O)NC[C@H](N)C(N)=O)nc1C(=O)N[C@H](C(=O)N[C@H](C)[C@@H](O)[C@H](C)C(=O)N[C@H](C(=O)NCCc1nc(-c2nc(C(=O)NCCC[S+](C)C)cs2)cs1)[C@@H](C)O)[C@@H](O[C@@H]1O[C@@H](CO)[C@@H](O)[C@H](O)[C@@H]1O[C@H]1O[C@H](CO)[C@@H](O)[C@H](OC(N)=O)[C@@H]1O)c1c[nH]cn1.[Br-] [BLEOMYCIN A2]	Not Active	Not Active	Not Active	Not Active	Not Active	Not Active	Not Active		
CC(C)Cc1ccc([C@H](C)C(=O)O)cc1 [DEXIBUPROFEN]		Not Active	Not Active	Not Active	Not Active	Not Active	Not Active		
COc1ccc(C[C@H](N)C(=O)N[C@H]2[C@@H](O)[C@H](n3cnc4c(N(C)C)ncnc43)O[C@@H]2CO)cc1 [PUROMYCIN]	Not Active	Not Active	Not Active	Not Active	Not Active	Not Active	Not Active		
CCC1(c2ccccc2)C(=O)NC(=O)NC1=O [PHENOBARBITAL]	Not Active	Not Active	Not Active	Not Active	Not Active	Not Active	Not Active		
O=C1c2ccccc2C(=O)C1c1ccccc1 [PHENINDIONE]	Not Active	Not Active	Not Active	Not Active	Not Active	Not Active	Not Active		
OC[C@H]1OC2C3[C@@H](CO)OC(O[C@H]4[C@H](O)[C@@H](O)[C@@H](O[C@H]5[C@H](O)[C@@H](O)[C@@H](O[C@H]6[C@H](O)[C@@H](O)[C@@H](O[C@H]7[C@H](O)[C@@H](O)[C@@H](O[C@H]8[C@H](O)[C@@H](O)[C@@H](O[C@H]9[C@H](O)[C@@H](O)C(OC1[C@H](O)[C@H]2O)O[C@@H]9CO)O[C@@H]8CO)O[C@@H]7CO)O[C@@H]6CO)O[C@@H]5CO)O[C@@H]4CO)[C@H](O)[C@H]3O	Not Active	Not Active	Not Active	Not Active	Not Active	Not Active	Not Active		
CO[C@H]1O[C@@H]2O[C@@]3(C)CC[C@H]4[C@H](C)CC[C@@H]([C@H]1C)[C@@]24OO3	Not Active	Not Active	Not Active	Not Active	Not Active	Not Active	Not Active		
CC(C)Cn1cnc2c(N)nc3ccccc3c21 [IMIQUIMOD]	Not Active	Not Active	Not Active	Not Active	Not Active	Not Active	Not Active		
COc1cc(NC(C)CCCN)c2ncccc2c1 (configuration not stated) [PRIMAQUINE]	Not Active	Not Active	Not Active	Not Active	Not Active	Not Active	Not Active		
O=C(O)CCc1nc(-c2ccccc2)c(-c2ccccc2)o1 [OXAPROZIN]		Not Active	Not Active	Not Active	Not Active	Not Active	Not Active		
